According to US9580416B2, “Inhibitors of Bruton's tyrosine kinase” (PHARMACYCLICS LLC, priority 2014, dated 2017):

How the values were obtained:
Type in all cases: biochemical
EGFR = EGFR (Homo sapiens, UniProt P00533); assay: Inhibition of a panel of kinases, in vitro HotSpot kinase assay: EGFR
Experimental: (§1) The degree of inhibition of a panel of kinases is determined using the in vitro HotSpot kinase assay (purified enzymes, ^33P-ATP, an appropriate substrate and 1 uM ATP).

Lck = Lck (Homo sapiens, UniProt P06239); assay: Lck kinase activity, TR-FRET assay; settings: read-out: LCK (IC50)
In short: (§2)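 Enzyme (Btk 0.5 nM; Lck 6 nM) reacted 1 h with inhibitor, ATP at Km and biotin-peptide substrate in pH 7.4 buffer, 10% DMSO. Phosphopeptide detected by Eu-p-Tyr100 antibody plus streptavidin-APC (665/615 nm). IC50 calculated from fitted Ki(app) via ATP/Km correction plus half total enzyme.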

Btk = Btk (Homo sapiens, UniProt Q06187); assay: Btk kinase activity, TR-FRET assay; settings: read-out: Btk (IC50)
In short: as §2

JAK3 = biological target: T1, JAK3 (Homo sapiens, UniProt P52333); assay: Inhibition of a panel of kinases, in vitro HotSpot kinase assay: JAK3
T1 sequence (P52333 1-1124): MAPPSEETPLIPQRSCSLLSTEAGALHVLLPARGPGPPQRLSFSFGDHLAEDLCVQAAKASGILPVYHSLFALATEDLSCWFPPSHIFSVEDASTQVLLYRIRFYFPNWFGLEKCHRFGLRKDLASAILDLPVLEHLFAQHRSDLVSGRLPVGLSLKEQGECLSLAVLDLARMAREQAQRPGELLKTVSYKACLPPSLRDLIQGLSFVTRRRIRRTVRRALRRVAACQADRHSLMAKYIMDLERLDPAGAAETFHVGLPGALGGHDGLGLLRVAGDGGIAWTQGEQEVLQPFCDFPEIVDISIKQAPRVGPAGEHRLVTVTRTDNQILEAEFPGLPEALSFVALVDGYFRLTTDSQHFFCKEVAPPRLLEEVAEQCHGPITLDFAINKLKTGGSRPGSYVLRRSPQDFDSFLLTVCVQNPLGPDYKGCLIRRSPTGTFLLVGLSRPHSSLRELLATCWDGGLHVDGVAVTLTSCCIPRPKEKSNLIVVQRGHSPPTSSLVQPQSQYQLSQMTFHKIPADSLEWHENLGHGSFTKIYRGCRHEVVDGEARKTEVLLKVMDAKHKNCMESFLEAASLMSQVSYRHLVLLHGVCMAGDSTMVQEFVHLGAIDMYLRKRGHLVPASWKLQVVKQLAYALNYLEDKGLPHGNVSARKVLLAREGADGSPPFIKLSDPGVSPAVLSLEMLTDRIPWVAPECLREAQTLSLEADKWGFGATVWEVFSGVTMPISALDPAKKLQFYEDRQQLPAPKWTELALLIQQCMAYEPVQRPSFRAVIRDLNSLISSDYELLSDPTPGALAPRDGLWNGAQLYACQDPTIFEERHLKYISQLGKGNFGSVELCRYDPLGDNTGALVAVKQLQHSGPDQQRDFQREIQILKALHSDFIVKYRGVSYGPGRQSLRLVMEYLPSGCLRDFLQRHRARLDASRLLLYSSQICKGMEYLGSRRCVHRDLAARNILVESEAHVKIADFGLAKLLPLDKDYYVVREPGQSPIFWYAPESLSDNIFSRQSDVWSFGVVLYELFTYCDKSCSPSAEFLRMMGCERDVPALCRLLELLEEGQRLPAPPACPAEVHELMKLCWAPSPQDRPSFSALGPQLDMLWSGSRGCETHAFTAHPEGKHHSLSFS
Experimental: as §1

Sequence of Lck (P06239 whole entry, species assumed): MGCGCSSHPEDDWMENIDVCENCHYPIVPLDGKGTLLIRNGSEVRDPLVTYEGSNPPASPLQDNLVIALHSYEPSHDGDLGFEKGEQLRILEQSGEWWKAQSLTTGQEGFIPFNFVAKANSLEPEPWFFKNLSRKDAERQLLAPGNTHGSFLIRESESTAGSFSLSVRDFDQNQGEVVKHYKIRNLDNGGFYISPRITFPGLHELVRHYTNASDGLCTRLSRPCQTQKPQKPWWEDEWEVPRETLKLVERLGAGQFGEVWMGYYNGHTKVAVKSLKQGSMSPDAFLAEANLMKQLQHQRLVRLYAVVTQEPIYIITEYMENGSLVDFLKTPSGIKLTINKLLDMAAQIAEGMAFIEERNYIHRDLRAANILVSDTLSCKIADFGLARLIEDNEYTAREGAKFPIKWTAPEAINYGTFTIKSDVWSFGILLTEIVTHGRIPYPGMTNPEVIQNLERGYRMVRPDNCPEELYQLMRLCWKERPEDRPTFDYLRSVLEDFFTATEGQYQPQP
Sequence of Btk (Q06187 whole entry): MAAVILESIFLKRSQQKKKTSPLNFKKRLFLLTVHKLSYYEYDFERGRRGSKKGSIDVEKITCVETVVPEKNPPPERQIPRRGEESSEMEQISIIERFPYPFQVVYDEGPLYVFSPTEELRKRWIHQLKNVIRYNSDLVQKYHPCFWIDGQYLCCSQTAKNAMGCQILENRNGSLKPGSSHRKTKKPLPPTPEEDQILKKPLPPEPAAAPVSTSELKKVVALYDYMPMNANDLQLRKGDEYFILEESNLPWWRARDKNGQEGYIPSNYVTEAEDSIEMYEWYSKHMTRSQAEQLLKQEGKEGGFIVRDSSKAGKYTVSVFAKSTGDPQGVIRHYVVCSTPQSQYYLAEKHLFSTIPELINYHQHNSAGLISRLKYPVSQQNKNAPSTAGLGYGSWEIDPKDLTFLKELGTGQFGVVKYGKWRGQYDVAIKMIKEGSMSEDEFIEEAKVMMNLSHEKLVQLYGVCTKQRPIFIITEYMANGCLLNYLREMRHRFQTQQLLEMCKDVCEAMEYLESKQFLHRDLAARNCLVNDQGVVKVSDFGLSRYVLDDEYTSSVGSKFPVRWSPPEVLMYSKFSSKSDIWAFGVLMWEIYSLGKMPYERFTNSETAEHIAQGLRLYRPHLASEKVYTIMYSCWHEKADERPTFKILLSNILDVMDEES
Sequence of EGFR (P00533 25-1210): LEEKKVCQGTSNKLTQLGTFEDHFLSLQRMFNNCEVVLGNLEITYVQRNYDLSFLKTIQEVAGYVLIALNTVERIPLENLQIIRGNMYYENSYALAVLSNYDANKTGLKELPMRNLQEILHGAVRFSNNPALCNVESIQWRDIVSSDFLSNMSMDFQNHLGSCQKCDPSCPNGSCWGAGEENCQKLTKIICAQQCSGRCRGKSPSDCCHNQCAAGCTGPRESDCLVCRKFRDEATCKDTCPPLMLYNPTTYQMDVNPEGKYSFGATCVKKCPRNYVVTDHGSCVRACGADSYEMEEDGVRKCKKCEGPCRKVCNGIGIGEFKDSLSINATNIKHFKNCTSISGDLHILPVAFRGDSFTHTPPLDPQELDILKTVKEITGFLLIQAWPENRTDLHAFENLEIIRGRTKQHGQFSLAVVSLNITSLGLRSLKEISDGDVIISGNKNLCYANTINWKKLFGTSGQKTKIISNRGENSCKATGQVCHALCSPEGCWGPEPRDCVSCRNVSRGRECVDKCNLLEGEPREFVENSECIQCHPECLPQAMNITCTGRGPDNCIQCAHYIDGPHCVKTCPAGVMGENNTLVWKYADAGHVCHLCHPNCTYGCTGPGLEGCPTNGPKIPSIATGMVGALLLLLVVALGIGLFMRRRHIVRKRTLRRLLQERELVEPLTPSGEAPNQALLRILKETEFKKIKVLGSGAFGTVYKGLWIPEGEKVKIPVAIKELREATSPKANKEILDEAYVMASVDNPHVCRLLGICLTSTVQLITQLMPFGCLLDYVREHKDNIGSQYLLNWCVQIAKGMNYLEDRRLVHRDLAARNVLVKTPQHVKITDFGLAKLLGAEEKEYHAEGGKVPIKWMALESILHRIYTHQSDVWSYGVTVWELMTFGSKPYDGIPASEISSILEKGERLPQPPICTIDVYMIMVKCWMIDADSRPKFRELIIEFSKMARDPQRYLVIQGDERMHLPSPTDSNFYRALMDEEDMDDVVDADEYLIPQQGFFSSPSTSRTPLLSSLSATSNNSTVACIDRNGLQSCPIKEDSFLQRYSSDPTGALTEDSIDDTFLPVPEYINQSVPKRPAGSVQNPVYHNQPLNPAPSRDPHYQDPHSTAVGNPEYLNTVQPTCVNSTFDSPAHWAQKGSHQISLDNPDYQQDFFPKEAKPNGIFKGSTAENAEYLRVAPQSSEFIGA

Row | SMILES | IC50 (EGFR) [nM] | IC50 (Lck) [nM] | IC50 (Btk) [nM] | IC50 (JAK3) [nM]
1 | Cc1ccnc(NC(=O)c2ccc(Oc3ccnc4[nH]nc(N[C@@H]5CCCN(C(=O)[C@@H]6CCCO6)C5)c34)cc2)c1 (single isomer, unassigned) [compound 94] | 1000 to 10000 | 100 to 1000 | < 100 | > 10000
2 | C=CC(=O)N1CCCC(Nc2n[nH]c3nccc(Oc4ccc(-c5ccc(C(F)(F)F)cn5)cc4)c23)C1 (stereo in doubt) [compound 196, 1-[(3S)-3-[(4-{4-[5-(trifluoromethyl)pyridin-2-yl]phenoxy}-1H-pyrazolo[3,4-b]pyridin-3-yl)amino]piperidin-1-yl]prop-2-en-1-one] | 1000 to 10000 | > 10000 | 100 to 1000 | 100 to 1000
3 | C=CC(=O)N1CC[C@@H](Nc2n[nH]c3nccc(Oc4ccc(Cl)cc4)c23)C1 [compound 1] | 100 to 1000 | 1000 to 10000 | < 100 | 1000 to 10000
4 | C=CC(=O)N1CC[C@@H](Nc2n[nH]c3nccc(Oc4ccc(Oc5ccccc5)cc4)c23)C1 [compound 4, 1-[(3R)-3-{[4-(4-phenoxyphenoxy)-1H-pyrazolo[3,4-b]pyridin-3-yl]amino}pyrrolidin-1-yl]prop-2-en-1-one] | < 100 | < 100 | < 100 | 100 to 1000
5 | CN(C)C/C=C/C(=O)N1CC[C@@H](Nc2n[nH]c3nccc(Oc4ccc(Oc5ccccc5)cc4)c23)C1 [compound 5, (2E)-4-(dimethylamino)-1-[(3R)-3-{[4-(4-phenoxyphenoxy)-1H-pyrazolo[3,4-b]pyridin-3-yl]amino}pyrrolidin-1-yl]but-2-en-1-one] | < 100 | < 100 | < 100 | > 10000
6 | C=CC(=O)N1CCC[C@@H](Nc2n[nH]c3nccc(Oc4ccc(Oc5ccccc5)cc4)c23)C1 [compound 6, 1-[(3R)-3-{[4-(4-phenoxyphenoxy)-1H-pyrazolo[3,4-b]pyridin-3-yl]amino}piperidin-1-yl]prop-2-en-1-one] | < 100 | < 100 | < 100 | 100 to 1000
7 | CN(C/C=C/C(=O)N1CCC[C@@H](Nc2n[nH]c3nccc(Oc4ccc(Oc5ccccc5)cc4)c23)C1)C1CC1 [compound 8, (2E)-4-[cyclopropyl(methyl)amino]-1-[(3R)-3-{[4-(4-phenoxyphenoxy)-1H-pyrazolo[3,4-b]pyridin-3-yl]amino}piperidin-1-yl]but-2-en-1-one] | 100 to 1000 | < 100 | < 100 | > 10000
8 | COCCN(C)C/C=C/C(=O)N1CC[C@@H](Nc2n[nH]c3nccc(Oc4ccc(Oc5ccccc5)cc4)c23)C1 [compound 9, (2E)-4-[(2-methoxyethyl)(methyl)amino]-1-[(3R)-3-{[4-(4-phenoxyphenoxy)-1H-pyrazolo[3,4-b]pyridin-3-yl]amino}pyrrolidin-1-yl]but-2-en-1-one] | < 100 | < 100 | < 100 | > 10000
9 | CN(C)C/C=C/C(=O)N(C)[C@H]1CC[C@@H](Nc2n[nH]c3nccc(Oc4cccc(Oc5ccccc5)c4)c23)CC1 [compound 21, (2E)-4-(dimethylamino)-N-methyl-N-[(1s,4s)-4-{[4-(3-phenoxyphenoxy)-1H-pyrazolo[3,4-b]pyridin-3-yl]amino}cyclohexyl]but-2-enamide] | 100 to 1000 | 100 to 1000 | < 100 | 100 to 1000
10 | CCNC(=O)N1CCC[C@@H](Nc2n[nH]c3nccc(Oc4ccc(Oc5ccccc5)cc4C)c23)C1 [compound 235, (3R)-N-ethyl-3-{[4-(2-methyl-4-phenoxyphenoxy)-1H-pyrazolo[3,4-b]pyridin-3-yl]amino}piperidine-1-carboxamide] | 1000 to 10000 | – | < 100 | > 10000
11 | COCCNc1n[nH]c2nccc(Oc3ccc(C(=O)Nc4cc(C(F)(F)F)ccn4)cc3)c12 [compound 236, 4-({3-[(2-methoxyethyl)amino]-1H-pyrazolo[3,4-b]pyridin-4-yl}oxy)-N-[4-(trifluoromethyl)pyridin-2-yl]benzamide] | 1000 to 10000 | – | 100 to 1000 | > 10000
12 | Cc1ccnc(NC(=O)c2ccc(Oc3ccnc4[nH]nc(N[C@@H]5CCCN(C(=O)c6nccs6)C5)c34)cc2)c1 [compound 241, (R)—N-(4-methylpyridin-2-yl)-4-(3-(1-(thiazole-2-carbonyl)piperidin-3-ylamino)-1H-pyrazolo[3,4-b]pyridin-4-yloxy)benzamide] | – | 100 to 1000 | < 100 | > 10000
13 | Cc1ccnc(NC(=O)c2ccc(Oc3ccnc4[nH]nc(N[C@@H]5CCCN(C(=O)c6ncc[nH]6)C5)c34)cc2)c1 [compound 242, (R)-4-(3-(1-(1H-imidazole-2-carbonyl)piperidin-3-ylamino)-1H-pyrazolo[3,4-b]pyridin-4-yloxy)-N-(4-methylpyridin-2-yl)benzamide] | – | 100 to 1000 | < 100 | > 10000
14 | Cc1ccnc(NC(=O)c2ccc(Oc3ccnc4[nH]nc(N[C@@H]5CCCN(C(=O)c6ccc(F)cc6)C5)c34)cc2)c1 [compound 243, (R)-4-(3-(1-(4-fluorobenzoyl)piperidin-3-ylamino)-1H-pyrazolo[3,4-b]pyridin-4-yloxy)-N-(4-methylpyridin-2-yl)benzamide] | – | 1000 to 10000 | < 100 | > 10000
15 | Cc1ccnc(NC(=O)c2ccc(Oc3ccnc4[nH]nc(N[C@@H]5CCCN(C(=O)c6ccc(Cl)cc6)C5)c34)cc2)c1 [compound 244, (R)-4-(3-(1-(4-chlorobenzoyl)piperidin-3-ylamino)-1H-pyrazolo[3,4-b]pyridin-4-yloxy)-N-(4-methylpyridin-2-yl)benzamide] | – | 1000 to 10000 | < 100 | > 10000
16 | Cc1ccc(C(=O)N2CCC[C@@H](Nc3n[nH]c4nccc(Oc5ccc(C(=O)Nc6cc(C)ccn6)cc5)c34)C2)cc1 [compound 245, (R)-4-(3-(1-(4-methylbenzoyl)piperidin-3-ylamino)-1H-pyrazolo[3,4-b]pyridin-4-yloxy)-N-(4-methylpyridin-2-yl)benzamide] | – | 1000 to 10000 | < 100 | > 10000
17 | COc1ccc(C(=O)N2CCC[C@@H](Nc3n[nH]c4nccc(Oc5ccc(C(=O)Nc6cc(C)ccn6)cc5)c34)C2)cc1 [compound 246, (R)-4-(3-(1-(4-methoxybenzoyl)piperidin-3-ylamino)-1H-pyrazolo[3,4-b]pyridin-4-yloxy)-N-(4-methylpyridin-2-yl)benzamide] | – | 1000 to 10000 | < 100 | > 10000
18 | Cc1ccnc(NC(=O)c2ccc(Oc3ccnc4[nH]nc(N[C@@H]5CCCN(C(=O)c6cccc(F)c6)C5)c34)cc2)c1 [compound 247, (R)-4-(3-(1-(3-fluorobenzoyl)piperidin-3-ylamino)-1H-pyrazolo[3,4-b]pyridin-4-yloxy)-N-(4-methylpyridin-2-yl)benzamide] | – | 1000 to 10000 | < 100 | > 10000
19 | Cc1ccnc(NC(=O)c2ccc(Oc3ccnc4[nH]nc(N[C@@H]5CCCN(C(=O)c6ccccc6F)C5)c34)cc2)c1 [compound 248, (R)-4-(3-(1-(2-fluorobenzoyl)piperidin-3-ylamino)-1H-pyrazolo[3,4-b]pyridin-4-yloxy)-N-(4-methylpyridin-2-yl)benzamide] | – | 1000 to 10000 | < 100 | > 10000
